Source: PubChem BioAssay AID330 (DTP/NCI, 2004)
Several values for one entry are separate records, joined by “and”; a condition that tells them apart may be missing. Equal entries are not always repeated. Toxic doses and inconclusive results are not listed. The calls were made as follows: active = survival T/C of 150% or more; inactive = T/C below 125% in these data.

Test system: P388 leukemia ip, CD2F1 mice, survival T/C
Experiment: NCI In Vivo Anticancer Drug Screen. Data for tumor model P388 Leukemia (intraperitoneal) in CD2F1 (CDF1) mice
Details: endpoint: median survival time, higher = longer survival
Outline: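 Mice carrying the transplanted tumor received test compound or vehicle. Survival was recorded in each group, and the value is the treated-group measurement divided by that of the vehicle-treated control group.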

[1] = dose: 60.0 mg/kg/injection, schedule: Q01DX005 (ip), vehicle: saline with Tween-80
[2] = dose: 120.0 mg/kg/injection, schedule: Q01DX005 (ip), vehicle: saline with Tween-80
[3] = dose: 240.0 mg/kg/injection, schedule: Q01DX005 (ip), vehicle: saline with Tween-80
[4] = dose: 6.25 mg/kg/injection, schedule: Q01DX009 (ip), vehicle: Klucel (hydroxypropylcellulose) (HPC)
[5] = dose: 50.0 mg/kg/injection, schedule: Q01DX009 (ip), vehicle: Klucel (hydroxypropylcellulose) (HPC)
[6] = dose: 100.0 mg/kg/injection, schedule: Q01DX009 (ip), vehicle: Klucel (hydroxypropylcellulose) (HPC)
[7] = dose: 100.0 mg/kg/injection, schedule: Q01DX001 (ip), vehicle: saline with Tween-80
[8] = dose: 200.0 mg/kg/injection, schedule: Q01DX001 (ip), vehicle: saline with Tween-80
[9] = dose: 50.0 mg/kg/injection, schedule: Q01DX009 (ip), vehicle: saline with Tween-80
[10] = dose: 50.0 mg/kg/injection, schedule: Q01DX009 (ip), vehicle: saline
[11] = dose: 100.0 mg/kg/injection, schedule: Q01DX009 (ip), vehicle: saline with Tween-80
[12] = dose: 100.0 mg/kg/injection, schedule: Q01DX009 (ip), vehicle: saline
[13] = dose: 100.0 mg/kg/injection, schedule: Q04DX003 (ip), vehicle: saline with Tween-80
[14] = dose: 200.0 mg/kg/injection, schedule: Q01DX009 (ip), vehicle: saline with Tween-80
[15] = dose: 200.0 mg/kg/injection, schedule: Q01DX009 (ip), vehicle: saline
[16] = dose: 200.0 mg/kg/injection, schedule: Q04DX003 (ip), vehicle: saline with Tween-80
[17] = dose: 400.0 mg/kg/injection, schedule: Q01DX009 (ip), vehicle: saline with Tween-80
[18] = dose: 400.0 mg/kg/injection, schedule: Q04DX003 (ip), vehicle: saline with Tween-80
[19] = dose: 60.0 mg/kg/injection, schedule: Q01DX005 (ip), vehicle: Klucel (hydroxypropylcellulose) (HPC)
[20] = dose: 120.0 mg/kg/injection, schedule: Q01DX005 (ip), vehicle: Klucel (hydroxypropylcellulose) (HPC)
[21] = dose: 240.0 mg/kg/injection, schedule: Q01DX005 (ip), vehicle: Klucel (hydroxypropylcellulose) (HPC)
[22] = dose: 50.0 mg/kg/injection, schedule: Q01DX005 (ip), vehicle: Klucel (hydroxypropylcellulose) (HPC)
[23] = dose: 100.0 mg/kg/injection, schedule: Q01DX005 (ip), vehicle: Klucel (hydroxypropylcellulose) (HPC)
[24] = dose: 200.0 mg/kg/injection, schedule: Q01DX005 (ip), vehicle: Klucel (hydroxypropylcellulose) (HPC)

Measured: T/C

O=C(O)CC[n+]1cccc2c1C(=O)C(=O)c1ncccc1-2
inactive: dose: 100.0 mg/kg/injection, schedule: Q04DX002 (ip), vehicle: saline 114 % of control | dose: 200.0 mg/kg/injection, schedule: Q04DX002 (ip), vehicle: saline 107 % of control

CC(C)c1c(OC(=O)N(C)C)c(C#N)c2[nH]c3ccccc3n2c1=O
inactive: [1] 109 % of control | [2] 94 % of control | [3] 86 % of control

CCn1c2ccc(C(=O)CCCN(C)C)cc2c2cc(C(=O)CCCN(C)C)ccc21
inactive: dose: 12.5 mg/kg/injection, schedule: Q01DX009 (ip), vehicle: saline 118 % of control and 122 % of control | dose: 25.0 mg/kg/injection, schedule: Q01DX009 (ip), vehicle: saline 108 % of control and 116 % of control

CCCCCCCCCC(C)CC(=O)NCCCN(C)CCCCN(C)C (configuration not stated)
inactive: dose: 0.78 mg/kg/injection, schedule: Q01DX009 (ip), vehicle: Klucel (hydroxypropylcellulose) (HPC) 107 % of control | dose: 1.56 mg/kg/injection, schedule: Q01DX009 (ip), vehicle: Klucel (hydroxypropylcellulose) (HPC) 105 % of control | dose: 3.13 mg/kg/injection, schedule: Q01DX009 (ip), vehicle: Klucel (hydroxypropylcellulose) (HPC) 112 % of control | [4] 87 % of control

Cc1ccc(SSc2nnnn2C)cc1
inactive: [5] 100 % of control | [6] 88 % of control

CC1=CN2C(c3ccccc3)=NON(c3ccc(C)cn3)C2C=C1 (configuration not stated)
inactive: dose: 200.0 mg/kg/injection, schedule: Q01DX005 (ip), vehicle: saline with Tween-80 92 % of control

COc1ccc2c(c1)CC[C@@H]1[C@@H]2CC[C@]2(C)[C@@H](OCCOS(=O)(=O)c3ccc(C)cc3)CC[C@@H]12
inactive: [7] 99 % of control | [8] 101 % of control | dose: 400.0 mg/kg/injection, schedule: Q01DX001 (ip), vehicle: saline with Tween-80 101 % of control

CNc1ccc2[nH]c3ccccc3c2c1
inactive: [1] 104 % of control | [2] 112 % of control | [3] 104 % of control

COc1cccc2c1C(=O)c1c(O)c3c(c(O)c1C2=O)C[C@@](O)(C(=O)CSC(=O)c1ccccc1)C[C@@H]3OC1CC(N)C(O)C(C)O1 (some centres not stated)
inactive: dose: 25.0 mg/kg/injection, schedule: Q01DX001 (ip), vehicle: water 123 % of control | dose: 50.0 mg/kg/injection, schedule: Q01DX001 (ip), vehicle: water 109 % of control

COC1C(OC(=O)c2ccc(C)[nH]2)C(O)C(Oc2ccc3c(O)c(NC(=O)c4c[nH]c(C(=O)Nc5c(O)c6ccc(OC7OC(C)(C)C(OC)C(OC(=O)c8ccc(C)[nH]8)C7O)c(C)c6oc5=O)c4C)c(=O)oc3c2C)OC1(C)C (configuration not stated)
inactive: dose: 6.25 mg/kg/injection, schedule: Q01DX009 (ip), vehicle: saline with Tween-80 110 % of control and 97 % of control | dose: 12.5 mg/kg/injection, schedule: Q01DX009 (ip), vehicle: saline with Tween-80 100 % of control and 122 % of control | dose: 25.0 mg/kg/injection, schedule: Q01DX009 (ip), vehicle: saline with Tween-80 96 % of control | [9] 103 % of control | [10] 118 % of control | [11] 90 % of control | [12] 113 % of control | [13] 109 % of control | [14] 109 % of control | [15] 102 % of control | [16] 100 % of control | [17] 100 % of control | dose: 400.0 mg/kg/injection, schedule: Q01DX009 (ip), vehicle: saline 117 % of control | [18] 109 % of control

CC1(C)SC(=O)N(CCC#CCCc2ccccc2)C1=O
inactive: [19] 102 % of control | [20] 100 % of control | [21] 92 % of control

N=C(N)c1ccc(N=Nc2c(O)c(C(=O)Nc3ccccc3)cc3ccccc23)cc1
inactive: [22] 100 % of control | [23] 101 % of control | [24] 100 % of control

COc1cc2c(cc1C1COc3cc4occc4cc3C1=O)OCO2 (configuration not stated)
inactive: dose: 12.5 mg/kg/injection, schedule: Q01DX005 (ip), vehicle: Klucel (hydroxypropylcellulose) (HPC) 97 % of control | dose: 25.0 mg/kg/injection, schedule: Q01DX005 (ip), vehicle: Klucel (hydroxypropylcellulose) (HPC) 95 % of control | [22] 92 % of control | [23] 95 % of control | [24] 95 % of control

CC(CCc1ccccc1)NC1=NCCO1 (configuration not stated)
inactive: [13] 95 % of control | [16] 100 % of control | [18] 90 % of control

COC(=O)CC1C=CCC2C(=O)C=C(OC)C(=O)C12C (configuration not stated)
inactive: [22] 103 % of control | [23] 100 % of control | [24] 100 % of control

O=S(=O)(O)OOS(=O)(=O)O
inactive: [5] 100 % of control | [6] 87 % of control

CC(=O)Nc1cc(C)cc(C(=O)O)c1C
inactive: [9] 97 % of control | [11] 100 % of control | [14] 98 % of control | [17] 98 % of control

CN1C(=O)c2ccc3c4ccc5c6c(ccc(c7ccc(c2c37)C1=O)c64)C(=O)N(c1ccccc1)C5=O
inactive: [22] 87 % of control | [23] 86 % of control | [24] 86 % of control

COC(=O)c1nc(N)nc(C(=O)OC)c1C(=O)c1ccc(OC)cc1
inactive: [19] 101 % of control | [20] 101 % of control

Cc1ncc(C[n+]2csc(CCO)c2C)c(N)n1
inactive: [10] 108 % of control | [12] 105 % of control | [15] 97 % of control

COc1cc2c(cc1Cc1cc(OC)c(OC)c(OC)c1)OCO2
inactive: [19] 98 % of control | [20] 100 % of control | [21] 98 % of control

O=S(=O)(c1ccc(Cl)cc1)N(Cl)Cl
inactive: [4] 107 % of control | dose: 12.5 mg/kg/injection, schedule: Q01DX009 (ip), vehicle: Klucel (hydroxypropylcellulose) (HPC) 100 % of control | dose: 25.0 mg/kg/injection, schedule: Q01DX009 (ip), vehicle: Klucel (hydroxypropylcellulose) (HPC) 101 % of control and 116 % of control | [5] 105 % of control

CCN(CC)C(=S)S
inactive: dose: 100.0 mg/kg/injection, schedule: Q04DX003 (ip), vehicle: saline sonified 95 % of control | dose: 200.0 mg/kg/injection, schedule: Q04DX003 (ip), vehicle: saline sonified 100 % of control | dose: 400.0 mg/kg/injection, schedule: Q04DX003 (ip), vehicle: saline sonified 90 % of control

CCOC(=O)C1=C(c2ccccc2)N(C)c2ccccc2S1
inactive: dose: 60.0 mg/kg/injection, schedule: Q01DX005 (ip), vehicle: saline + Tween-80 + alcohol 100 % of control | dose: 120.0 mg/kg/injection, schedule: Q01DX005 (ip), vehicle: saline + Tween-80 + alcohol 103 % of control | dose: 240.0 mg/kg/injection, schedule: Q01DX005 (ip), vehicle: saline + Tween-80 + alcohol 100 % of control

COc1ccc(C(C)=O)cc1OC
inactive: dose: 100.0 mg/kg/injection, schedule: Q04DX003 (ip), vehicle: saline 100 % of control | dose: 200.0 mg/kg/injection, schedule: Q04DX003 (ip), vehicle: saline 100 % of control | dose: 400.0 mg/kg/injection, schedule: Q04DX003 (ip), vehicle: saline 100 % of control

Cc1ccc2c(c1)C(=O)CC=C(C(=O)O)N2
inactive: [6] 98 % of control | dose: 200.0 mg/kg/injection, schedule: Q01DX009 (ip), vehicle: Klucel (hydroxypropylcellulose) (HPC) 104 % of control | dose: 400.0 mg/kg/injection, schedule: Q01DX009 (ip), vehicle: Klucel (hydroxypropylcellulose) (HPC) 111 % of control | dose: 600.0 mg/kg/injection, schedule: Q01DX009 (ip), vehicle: Klucel (hydroxypropylcellulose) (HPC) 89 % of control

N#CC1C(C#N)C2(c3ccccc3)C(c3ccccc3)=NN(c3ccccc3)CC12 (configuration not stated)
inactive: dose: 25.0 mg/kg/injection, schedule: Q01DX001 (ip), vehicle: Klucel (hydroxypropylcellulose) (HPC) 91 % of control | dose: 50.0 mg/kg/injection, schedule: Q01DX001 (ip), vehicle: Klucel (hydroxypropylcellulose) (HPC) 95 % of control | dose: 100.0 mg/kg/injection, schedule: Q01DX001 (ip), vehicle: Klucel (hydroxypropylcellulose) (HPC) 87 % of control

CC1C(=O)C=C(c2ccccc2)C1(O)c1ccccc1 (configuration not stated)
inactive: [7] 104 % of control | [8] 103 % of control
